Measured values published in patent US12441754B2, “Galactoside inhibitor of galectins” (GALECTO BIOTECH AB, priority 2019, dated 2025).
Where two headings read alike, the source gives them in different places.

Legend:
Galectin-1 [1] = target: T1, Galectin-1 (Homo sapiens, UniProt P09382); conditions: T. Delaine 2016; read-out: affinity to Galectin-1; cited from earlier work
galectins = system: T2, galectins; conditions: cited from earlier work
T2 construct: Kd, all galectins; other: compared with lactose

CACO-2 = CACO-2 model of uptake over the human intestine; format: in vitro ADME; conditions: result in words
From the text: (§1) For some compounds of this invention wherein R^1 of formula 1 is an alkylated hydroxy, for example —OCH3 high uptake and no efflux is observed in a CACO-2 model of uptake ver the human intestine. That predicts high likeliness of high human oral bioavailability.

[2] = CACO-2 model of uptake over the human intestine; format: in vitro ADME; conditions: human, Caco-2
From the text: as §1

Galectin-1 [3] = target: T1, Galectin-1; test: fluorescence anisotropy assay, compound as inhibitor of galectin / fluorescein tagged saccharide probe interaction; format: binding
From the text: (§2) Anal. Biochem. 334: 36-47, (Sörme et al., 2004) and Monovalent interactions of Galectin-1 By Salomonsson, Emma; Larumbe, Amaia; Tejler, Johan; Tullberg, Erik; Rydberg, Hanna; Sundin, Anders; Khabut, Areej; Frejd, Torbjorn; Lobsanov, Yuri D.; Rini, James M.; et al, From Biochemistry (2010), 49(44), 9518-9532, (Salomonsson et al., 2010).

Galectin-3 = Galectin-3 (Homo sapiens, UniProt P17931); test: as above; format: binding
From the text: as §2

T1 sequence (P09382 whole entry): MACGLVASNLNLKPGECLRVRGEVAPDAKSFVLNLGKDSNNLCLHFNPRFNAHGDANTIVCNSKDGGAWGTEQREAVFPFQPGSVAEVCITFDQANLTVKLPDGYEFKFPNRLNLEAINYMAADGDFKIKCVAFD
Sequence of Galectin-3 (P17931 whole entry): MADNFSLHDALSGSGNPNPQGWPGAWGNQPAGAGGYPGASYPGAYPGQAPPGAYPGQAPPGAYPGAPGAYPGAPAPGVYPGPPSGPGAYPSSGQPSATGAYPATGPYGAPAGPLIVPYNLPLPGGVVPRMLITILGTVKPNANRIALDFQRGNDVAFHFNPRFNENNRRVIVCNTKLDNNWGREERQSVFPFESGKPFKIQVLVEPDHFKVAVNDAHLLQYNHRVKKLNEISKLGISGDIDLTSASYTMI

| Compound | Kd (Galectin-3) | Kd (Galectin-1 [3]) | further results |
| --- | --- | --- | --- |
| OCC1O[C@@H](SC2O[C@H](CO)C(O)C(n3cc(-c4ccsc4)nn3)[C@H]2O)C(O)C(n2cc(-c3ccsc3)nn2)[C@H]1O (some centres unmarked) |  |  | Kd (Galectin-1 [1]): < 0.01 µM |
| O=C[C@H](O)[C@@H](O)[C@@H](O)[C@H](O)CO [D-galactose] |  |  | affinity relative to lactose (times lower) (galectins; compared with lactose): 50-100 times |
| CO[C@@H]1[C@@H](n2cc(-c3nccs3)nn2)[C@@H](O)[C@@H](CO)O[C@@H]1Sc1cc(Cl)c(F)c(Cl)c1 [Example 1, 3,5-Dichloro-4-fluorophenyl 3-deoxy-2-O-methyl-3-[4-(2-thiazolyl)-1H-1,2,3-triazol-1-yl]-1-thio-α-D-galactopyranoside] | 8 µM |  | uptake and efflux in CACO-2 model (CACO-2): the uptake is very high and virtually no efflux is observed; Papp A→B ([2]; A>B, read-out: Papp from the apical to the basolateral side (A>B)): 20 ×10⁻⁶ cm/s; Papp B→A ([2]; B>A, read-out: Papp from the basolateral to the apical side B>A): 28 ×10⁻⁶ cm/s; Kd (Galectin-1 [3]; read-out: Galectin-1 Kd): 0.175 µM |
| CCO[C@@H]1[C@@H](n2cc(-c3nc(Cl)cs3)nn2)[C@@H](O)[C@@H](CO)O[C@@H]1Sc1cc(Br)cnc1C#N [Example 86, 5-Bromo-2-cyanopyridin-3-yl 3-[4-(4-chlorothiazol-2-yl)-1H-1,2,3-triazol-1-yl]-3-deoxy-2-O-ethyl-1-thio-α-D-galactopyranoside] | 0.17 µM | 0.022 µM |  |
| CCOC1C(n2cc(-c3csc(N)n3)nn2)[C@@H](O)C(CO)O[C@@H]1Sc1ccc(C#N)c(Cl)c1 (some centres unmarked) [Example 88] | 7.7 µM | 0.13 µM |  |
| CCO[C@@H]1[C@@H](n2cc(-c3nc(Cl)cs3)nn2)[C@@H](O)[C@@H](CO)O[C@@H]1Sc1cc(Cl)cnc1C(=O)NC [Example 95, 5-Chloro-2-(N-methylcarbamoyl)pyridin-3-yl 3-[4-(4-chlorothiazol-2-yl)-1H-1,2,3-triazol-1-yl]-3-deoxy-2-O-ethyl-1-thio-α-D-galactopyranoside] | 0.093 µM | 0.008 µM |  |
| CO[C@@H]1[C@@H](n2cc(-c3nc(Cl)cs3)nn2)[C@@H](O)[C@@H](CO)O[C@@H]1Sc1cc(Cl)ccc1C#N [Example 96, 5-Chloro-2-cyanophenyl 3-[4-(4-chlorothiazol-2-yl)-1H-1,2,3-triazol-1-yl]-3-deoxy-2-O-methyl-1-thio-α-D-galactopyranoside] | 0.21 µM | 0.022 µM |  |
| CO[C@@H]1[C@@H](n2cc(-c3nc(Cl)cs3)nn2)[C@@H](O)[C@@H](CO)O[C@@H]1Sc1cc2scnc2cc1C#N [Example 100, 5-Cyano-1,3-benzothiazol-6-yl 3-[4-(4-chlorothiazol-2-yl)-1H-1,2,3-triazol-1-yl]-3-deoxy-2-O-methyl-1-thio-α-D-galactopyranoside] | 0.18 µM | 0.032 µM |  |
| CO[C@@H]1[C@@H](n2cc(-c3nc(Cl)cs3)nn2)[C@@H](O)[C@@H](CO)O[C@@H]1Sc1cnc2ncsc2c1 [Example 101, Thiazolo[4,5-b]pyridin-6-yl 3-[4-(4-chlorothiazol-2-yl)-1H-1,2,3-triazol-1-yl]-3-deoxy-2-O-methyl-1-thio-α-D-galactopyranoside] | 0.4 µM | 0.11 µM |  |
| OC[C@H]1O[C@@H](O[C@H]2[C@H](O)[C@@H](O)C(O)O[C@@H]2CO)[C@H](O)[C@@H](O)[C@H]1O (some centres unmarked) [lactose] |  |  | Kd (galectins; read-out: Kd, all galectins): 100 to 1000 µM |

Now from value to compound, other results behind:

| Kd (Galectin-3) | Kd (Galectin-1 [3]) | Compound | further results |
| --- | --- | --- | --- |
| 5.5 µM | 0.11 µM | CCO[C@@H]1[C@@H](n2cc(-c3csc(N)n3)nn2)[C@@H](O)[C@@H](CO)O[C@@H]1Sc1ccc(Cl)c(Cl)c1 [Example 87, 3,4-Dichlorophenyl 3-[4-(2-aminothiazol-4-yl)-1H-1,2,3-triazol-1-yl]-3-deoxy-2-O-ethyl-1-thio-α-D-galactopyranoside] |  |
| 10.5 µM | 0.21 µM | N#Cc1ccc(S[C@@H]2C[C@@H](n3cc(-c4csc(O)n4)nn3)[C@@H](O)[C@@H](CO)O2)cc1Cl [Example 89, 3-Chloro-4-cyanophenyl 2,3-dideoxy-3-[4-(2-hydroxythiazol-4-yl)-1H-1,2,3-triazol-1-yl]-1-thio-α-D-galactopyranoside] |  |
| 0.044 µM | 0.0085 µM | CCO[C@@H]1[C@@H](n2cc(-c3nc(Cl)cs3)nn2)[C@@H](O)[C@@H](CO)O[C@@H]1Sc1cc(Br)cnc1C(=O)N(C)C [Example 90, 5-Bromo-2-(N,N-dimethylcarbamoyl)pyridin-3-yl 3-[4-(4-chlorothiazol-2-yl)-1H-1,2,3-triazol-1-yl]-3-deoxy-2-O-ethyl-1-thio-α-D-galactopyranoside] |  |
| 0.051 µM | 0.024 µM | C#Cc1cnc(C(=O)N(C)C)c(S[C@H]2O[C@H](CO)[C@H](O)[C@H](n3cc(-c4nc(Cl)cs4)nn3)[C@H]2OC)c1 [Example 91, 5-Ethynyl-2-(N,N-dimethylcarbamoyl)pyridin-3-yl 3-[4-(4-chlorothiazol-2-yl)-1H-1,2,3-triazol-1-yl]-3-deoxy-2-O-methyl-1-thio-α-D-galactopyranoside] |  |
| 0.099 µM | 0.032 µM | C#Cc1cnc(C(=O)N2CCC2)c(S[C@H]2OC(CO)[C@H](O)C(n3cc(-c4nc(Cl)cs4)nn3)C2OC)c1 (stereo partly drawn) [Example 92, 2-(N-Azetidinylcarbamoyl)-5-ethynylpyridin-3-yl 3-[4-(4-chlorothiazol-2-yl)-1H-1,2,3-triazol-1-yl]-3-deoxy-2-O-methyl-1-thio-α-D-galactopyranoside] |  |
| 0.048 µM | 0.015 µM | CNC(=O)c1ncc(Cl)cc1S[C@H]1O[C@H](CO)[C@H](O)[C@H](n2cc(-c3nc(Cl)cs3)nn2)[C@H]1OC [Example 93, 5-Chloro-2-(N-methylcarbamoyl)pyridin-3-yl 3-[4-(4-chlorothiazol-2-yl)-1H-1,2,3-triazol-1-yl]-3-deoxy-2-O-methyl-1-thio-α-D-galactopyranoside] |  |
| 0.074 µM | 0.012 µM | CCNC(=O)c1ncc(Cl)cc1S[C@H]1O[C@H](CO)[C@H](O)[C@H](n2cc(-c3nc(Cl)cs3)nn2)[C@H]1OC [Example 94, 5-Chloro-2-(N-ethylcarbamoyl)pyridin-3-yl 3-[4-(4-chlorothiazol-2-yl)-1H-1,2,3-triazol-1-yl]-3-deoxy-2-O-methyl-1-thio-α-D-galactopyranoside] |  |
| 0.32 µM | 0.083 µM | CO[C@@H]1[C@@H](n2cc(-c3nc(Cl)cs3)nn2)[C@@H](O)[C@@H](CO)O[C@@H]1Sc1ccc2ncsc2c1 [Example 97, 1,3-Benzothiazol-6-yl 3-[4-(4-chlorothiazol-2-yl)-1H-1,2,3-triazol-1-yl]-3-deoxy-2-O-methyl-1-thio-α-D-galactopyranoside] |  |
| 6.5 µM | 0.064 µM | CO[C@@H]1[C@@H](n2cc(-c3csc(O)n3)nn2)[C@@H](O)[C@@H](CO)O[C@@H]1Sc1ccc2ncsc2c1 [Example 98, 1,3-Benzothiazol-6-yl 3-deoxy-3-[4-(2-hydroxythiazol-4-yl)-1H-1,2,3-triazol-1-yl]-2-O-methyl-1-thio-α-D-galactopyranoside] |  |
| 7.5 µM | 0.18 µM | CO[C@@H]1[C@@H](n2cc(-c3csc(N)n3)nn2)[C@@H](O)[C@@H](CO)O[C@@H]1Sc1ccc2ncsc2c1 [Example 99, 1,3-Benzothiazol-6-yl 3-[4-(2-aminothiazol-4-yl)-1H-1,2,3-triazol-1-yl]-3-deoxy-2-O-methyl-1-thio-α-D-galactopyranoside] |  |
| 0.42 µM | 0.19 µM | CO[C@@H]1[C@@H](n2cc(-c3nc(Cl)cs3)nn2)[C@@H](O)[C@@H](CO)O[C@@H]1Sc1cncc(SC)c1 [Example 102, 5-Methylsulfanylpyridin-3-yl 3-[4-(4-chlorothiazol-2-yl)-1H-1,2,3-triazol-1-yl]-3-deoxy-2-O-methyl-1-thio-α-D-galactopyranoside] |  |
| 1 µM | 0.33 µM | CO[C@@H]1[C@@H](n2cc(-c3nc(Cl)cs3)nn2)[C@@H](O)[C@@H](CO)O[C@@H]1Sc1cncc(SC(F)(F)F)c1 [Example 103, 5-(Trifluoromethylsulfanyl)pyridin-3-yl 3-[4-(4-chlorothiazol-2-yl)-1H-1,2,3-triazol-1-yl]-3-deoxy-2-O-methyl-1-thio-α-D-galactopyranoside] |  |
